In patent publication US4551538A, “Phenylpyrazolidine acetic acid derivatives” (American Home Products Corporation, priority 1984, dated 1985):
Values joined by “and” are separate entries in the source; they are usually repeats but may differ in a detail not shown here. Equal values may be shown once. Read-outs that look alike come from different tables or passages of the source. Blank lines part the entries; values can stand above or below the compound they belong to.

Columns and labels:
[1] = system: phenylbenzoquinone-induced writhing; assay: phenylbenzoquinone-induced writhing test; type: in vivo, mouse (CF-1)
Description: In this procedure, test compound or vehicle is administered at various doses to ten male CF-1 mice, weighing 20-25 g, per dose level. The animals then receive intraperitoneal injection with 0.25 ml of the writhing agonist (a 0.02% solution of benzoquinone) 5 minutes before the beginning of a pre-selected, 10-minute observation period. Typical observation periods include 10 to 20, 25 to 35, 40 to 50 and 55 to 65 minutes following administration of the test compound. The mice are observed during the observation period and the total numbers of writhes are determined for each mouse.

lipoxygenase = details: background statement; cited from earlier work
[2] = system: arachidonic acid cyclooxygenase oxidation product PGE2; assay: inhibition of PGE2 synthesis by rat polymorphonuclear leukocytes; type: cell-based, rat (Wistar); details: read-out: 50% Inhibitory Concentration (IC50), PGE2
Description: (§1) Peritoneal PMN are obtained from female Wistar rats (150-250 g) that received an i.p. injection of 6% glycogen (10 ml). After 24 hours, rats are killed by CO2 asphyxiation and peritoneal cells are harvested by peritoneal lavage using Ca^++ and Mg^++ free Hanks' balanced salt solution (HBSS). The peritoneal exudate is centrifuged at 400 g for 10 minutes. After centrifugation, the lavaged fluid is removed and the cell pellet is resuspended in HBSS containing Ca^++ and Mg^++ and 10 mM L-cysteine at a concentration of 2×10^7 cells/ml. To 1 ml portions of cell suspension, test drugs or vehicle are added and incubated at 37° C. for 10 minutes. Following this preincubation, the calcium ionophore (10 μM), A23187, is added together with 0.5 μCi [^14 C] arachidonic acid and further incubated for 10 minutes. The reaction is stopped by the addition of ice cold water (3 ml) and acidifying to pH 3.5. Lipoxygenase products are then extracted twice into diethyl ether. The pooled ether extracts are evaporated to dryness under nitrogen and the residue is redissolved in a small volume of methanol and spotted on aluminum backed pre-coated thin layer chromatographic plates. The samples are then co-chromatographed with authentic reference 5-HETE, in the solvent system--hexane:ether:acetic acid (50:50:3). After chromatography, the areas associated with 5-HETE standard are identified by autoradiography, cut out and quantitated by liquid scintillation.
(§2) Results are expressed as % inhibition of [^14 C]5-HETE synthesis. [formula]
However, in order to determine cyclooxygenase activity, the samples are cochromatographed with authentic reference PGE2 in the solvent system ethyl acetate:formic acid (80:1) and the upper phase of ethyl acetate:isoctane:acetic acid:water (110:50:20:100). After chromatography, the areas associated with PGE2 standard are identified by autoradiography, cut out and quantitated by liquid scintillation techniques.

cyclooxygenase = details: background statement; cited from earlier work
[3] = system: acute inflammatory response (carrageenan rat paw edema); assay: carrageenan rat paw edema test; type: in vivo, rat (Sprague-Dawley); details: for ED50: Rattus norvegicus, po, 3 h, read-out: ED50, paw edema; for % Inhibition of paw edema: 200 mg/kg perorally, 3 h reading; for profile of activity in carrageenan rat paw edema test: in vivo
Description: In this test, male Sprague-Dawley (Charles River) rats weighing 140-180 gm, in groups of 6 animals, are injected subcutaneously in the right paw with 0.1 ml of 1% carrageenan at zero time. Mercury plethysmographic readings (ml) of the paw are made at zero time and 3 hours later. Drugs are suspended or dissolved in 0.5% methylcellulose and given perorally one hour prior to carrageenan. The increase in paw volume (edema in ml) produced by the inflammatory agent, carrageenan, is measured.
Unpaired Student's t-test is used to determine statistical significance.

[4] = system: AA-induced mouse ear edema; assay: arachidonic acid (AA)-induced murine ear edema test; type: in vivo, mouse (Swiss Webster); details: for % Change from Control, AA ear edema: * p ≤ 0.05
Source text: (§3) The ability of the compounds of the invention to inhibit the lipoxygenase and cyclooxygenase pathways of arachidonic acid is examined in the in vivo arachidonic acid (AA)-/12-O-tetradecanoylphorbol acetate (TPA)-induced murine ear edema test.
(§4) According to this test, Swiss Webster female mice (Buckshire), approximately 8 weeks old, are placed into plastic boxes in groups of six. Eight groups of mice receive AA topically on the right ear, and another 8 groups receive TPA topically on the right ear. AA and TPA are dissolved in acetone at concentrations of 100 mg/ml and 100 μg/ml respectively. The phlogistics are applied to the right ear by the means of an automatic pipet. Volumes of 10 μl are applied to the inner and outer surfaces of the ear. Each mouse receives either 2 mg/ear AA or 4 μg/ear TPA. The left ear (control) receives acetone delivered in the same manner. Oral and topical dosing regimens are as follows: (1) drugs are given 30 minutes prior to AA treatment, and (2) drugs are given 30 minutes after treatment with TPA.
(§5) Measurements are taken with Oditest calipers, 0-10 mm with 0.01 graduations. The right and left ears are measured after 1 hour AA-induced inflammation and 4 hours after TPA-induced inflammation.
(§6) The difference between right and left ear thickness is calculated and the significance is determined by a one way analysis of variance with Dunnett's comparisons to control (P=0.05). Drug effects are expressed as a percent change from control values: [formula]

[5] = system: arachidonic acid lipoxygenase oxidation product 5-HETE; assay: inhibition of 5-HETE synthesis by rat glycogen-elicited polymorphonuclear leukocytes; type: cell-based, rat (Wistar); details: Leukocyte, read-out: 50% Inhibitory Concentration of (IC50) 5-HETE
Description: The assay of this Example measures the ability of the compounds of the invention to inhibit the synthesis of 5-HETE by rat glycogen-elicited polymorphonuclear leukocytes.
The assay is carried out as follows:
as §1, §2

[6] = system: TPA-induced mouse ear edema; assay: 12-O-tetradecanoylphorbol acetate (TPA)-induced murine ear edema test; type: in vivo, mouse (Swiss Webster); details: for % Change from Control, TPA ear edema: * p ≤ 0.05
Source text: as §3, §4, §5, §6

[7] = system: urate-induced canine synovitis; assay: urate-induced canine synovitis test; type: in vivo, dog (mongrel); details: Canis lupus familiaris, read-out: Oral ED50
Description: In this procedure, healthy mongrel dog of either sex weighing between 14-20 kg are adapted to a measuring platform. […] A Hewlett Packard 75C computer then converts voltage into kilogram units (mean pressure reading for 1 minute). This control pressure represents the 100% value in this procedure. Synovitis is induced by injecting 5 mg of sodium urate crystals (5-15μ in length) in 1 ml of 0.9% saline solution into the synovial space of the right or left knee. Readings are taken at 1, 2, 2.5, 3, 3.5, 4, 4.5 and 5 hours after urate administration and calculated as a percentage of control hind paw pressure. […] Dogs are used only once in these experiments to prevent tolerance.
Each dog is placed on the pressure measuring apparatus with its left or right hind paw centered above the load cell, and pressure readings are recorded for one minute. Two or three control readings are averaged and represent control paw pressure. Single pressure readings are taken after sodium urate injection.
Drug effects are expressed as a percentage of control paw pressure which is calculated as follows:
Test reading/Control reading×100
Test reading=Pressure measurement after sodium urate injection and drug or no drug (blank capsule).
Control reading=Mean pressure measurement before sodium urate injection.
A one-way analysis of variance with Dunnett's comparisons to control (α=0.05 and 0.01) was used to determine statistical significance.

[8] = 200 mg/kg; Control = 15.5; * p ≤ 0.05
[9] = rat PMN, A23187 10 μM, [14C] arachidonic acid
[10] = Leukocyte, rat PMN, A23187 10 μM, [14C] arachidonic acid

Structure (SMILES): CC(=O)Oc1ccccc1C(=O)O [aspirin, reference compound]
Mean No. of Writhes [1, 8]: 6.6

Structure (SMILES): NC1=NN(c2cccc(C(F)(F)F)c2)CC1 [BW755C, 3-amino-1-[m-(trifluoromethyl)phenyl]-2-pyrazoline, reference compound]
inhibition of lipoxygenase activity (lipoxygenase): inhibitors of both cyclooxygenase and lipoxygenase activity
IC50 ([2]; Rattus norvegicus, Leukocyte): 25 µM
inhibition of cyclooxygenase activity (cyclooxygenase): inhibitors of both cyclooxygenase and lipoxygenase activity
ED50 ([3]; perorally, 1 h prior to carrageenan): 72 mg/kg
ED50 ([4]; Mus musculus, 1 h, oral): 65 mg/kg
IC50 ([5]; Rattus norvegicus): 43 µM
ED50 ([1]; Mus musculus; read-out: ED50, writhing): 100 mg/kg
ED50 ([6]; Mus musculus, 4 h, oral): 88 mg/kg
ED50 ([7]; oral, 2 h after urate): 1.5 mg/kg

Structure (SMILES): O=C(O)C(O)N1C(=O)CCN1c1ccccc1 (stereo not drawn) [Example 2, α-Hydroxy-5-oxo-2-phenyl-1-pyrazolidine acetic acid]
% Inhibition of paw edema ([3]; 1 h prior to carrageenan): 46%
profile of activity in carrageenan rat paw edema test [3]: a profile of activity similar to that of phenidone
% Change from Control, AA ear edema ([4]; oral, 100 mg/kg, 1 h after AA): -30%
% Change from Control, AA ear edema ([4]; topical, 0.1 mg/ear): -21%
% Change from Control, AA ear edema ([4]; topical, 0.33 mg/ear): -26%
% Change from Control, AA ear edema ([4]; topical, 1.0 mg/ear): -54%
IC50 [5, 9]: 3 to 5 µM
Mean No. of Writhes ([1]; 100 mg/kg; Control = 5.1): 3.5
Mean No. of Writhes ([1]; 133 mg/kg; Control = 15.5; * p ≤ 0.05): 3.2
% Change from Control, TPA ear edema ([6]; oral, 100 mg/kg, 4 h after TPA): -8%
% Change from Control, TPA ear edema ([6]; topical, 0.1 mg/ear): -12%
% Change from Control, TPA ear edema ([6]; topical, 0.33 mg/ear): -31%
% Change from Control, TPA ear edema ([6]; topical, 1.0 mg/ear): -23%
ED50 ([7]; oral, 2 h after urate): 5 mg/kg

Structure (SMILES): O=C(O)C(O)N1C(=O)CCN1c1cccc([N+](=O)[O-])c1 (stereo not drawn) [Example 6, α-Hydroxy-5-oxo-2-(3-nitrophenyl)-1-pyrazolidine acetic acid]
% Change from Control, AA ear edema ([4]; oral, 100 mg/kg, 1 h after AA): +4%
IC50 [5, 9]: < 50 µM
% Change from Control, TPA ear edema ([6]; oral, 100 mg/kg, 4 h after TPA): -23%

Structure (SMILES): O=C(O)C(O)N1C(=O)CCN1c1ccc(Cl)cc1 (stereo not drawn) [Example 5, 2-(4-Chlorophenyl)-α-hydroxy-5-oxo-1-pyrazolidine acetic acid]
IC50 [2, 10]: 140 µM
% Inhibition of paw edema ([3]; 1 h prior to carrageenan): 30%
% Change from Control, AA ear edema ([4]; oral, 50 mg/kg, 1 h after AA): -22%
IC50 [5, 9]: 2 to 3 µM
% Change from Control, TPA ear edema ([6]; oral, 50 mg/kg, 4 h after TPA): -8%

Structure (SMILES): COc1ccc2c(c1)c(CC(=O)O)c(C)n2C(=O)c1ccc(Cl)cc1 [indomethacin, reference compound]
ED50 [3]: 5.6 mg/kg
activity in AA ear edema ([4]; oral, 10 mg/kg): NA(10)
ED50, AA ear edema ([4]; topical): 0.1 mg/ear
ED50 ([1]; Mus musculus, read-out: ED50, writhing): 10 mg/kg
activity in TPA ear edema ([6]; oral, 10 mg/kg): NA(10)
ED50, TPA ear edema ([6]; topical): 0.08 mg/ear
ED50 ([7]; po, 2 h): 0.3 mg/kg

Now from value to compound, other results behind:

IC50 [5, 9]: 5 to 13 µM
Structure (SMILES): O=C(O)C(O)N1C(=O)CCN1c1cccc(F)c1 (stereo not drawn) [Example 4, 2-(3-Fluorophenyl)-α-hydroxy-5-oxo-1-pyrazolidine acetic acid]
% Inhibition of paw edema ([3]; 1 h prior to carrageenan): 44%
profile of activity in carrageenan rat paw edema test [3]: a profile of activity similar to that of phenidone
% Change from Control, AA ear edema ([4]; oral, 100 mg/kg, 1 h after AA): -11%
% Change from Control, AA ear edema ([4]; topical, 0.1 mg/ear): -27%
% Change from Control, AA ear edema ([4]; topical, 0.33 mg/ear): -38%
% Change from Control, AA ear edema ([4]; topical, 1.0 mg/ear): -63%
Mean No. of Writhes ([1]; 100 mg/kg; Control = 4.5): 3.8
Mean No. of Writhes [1, 8]: 1.7
% Change from Control, TPA ear edema ([6]; oral, 50 mg/kg, 4 h after TPA): 0%
% Change from Control, TPA ear edema ([6]; oral, 100 mg/kg, 4 h after TPA): -27%
% Change from Control, TPA ear edema ([6]; topical, 0.1 mg/ear): -10%
% Change from Control, TPA ear edema ([6]; topical, 0.33 mg/ear): -23%
% Change from Control, TPA ear edema ([6]; topical, 1.0 mg/ear): -45%

IC50 [2, 9]: < 50 µM
Structure (SMILES): O=C(O)C(O)N1C(=O)CCN1c1cccc(C(F)(F)F)c1 (stereo not drawn) [Example 1, α-Hydroxy-5-oxo-2-[3-(trifluoromethyl)phenyl]-1-pyrazolidine acetic acid]
% Change from Control, AA ear edema ([4]; topical, 1.0 mg/ear): -83% and -74%

IC50 [2, 10]: 110 µM
IC50 [5, 9]: 2 to 5 µM
Structure (SMILES): O=C(O)C(O)N1C(=O)CCN1c1cccc(Cl)c1 (stereo not drawn) [Example 3, 2-(m-Chlorophenyl)-α-hydroxy-5-oxo-1-pyrazolidine acetic acid]
% Inhibition of paw edema ([3]; 1 h prior to carrageenan): 29%
% Change from Control, AA ear edema ([4]; oral, 50 mg/kg, 1 h after AA): -5%
% Change from Control, TPA ear edema ([6]; oral, 50 mg/kg, 4 h after TPA): -8%
